Reference: PubChem BioAssay (NCI)
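Interpolation was linear, between the two tested concentrations surrounding the appropriate level; five concentrations were tested over 48 hours in 96-well plates. Here, GI50 denotes the concentration required for 50% inhibition of growth. TGI is the concentration that stops growth completely.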

Key:
Assay in all cases: DTP human tumour cell line panel, 48 h
NCI-H23 lung = system: NCI-H23 lung
NCI-H460 lung = system: NCI-H460 lung
NCI-H522 lung = system: NCI-H522 lung
NCI/ADR-RES ovarian = system: NCI/ADR-RES ovarian
OVCAR-3 ovarian = system: OVCAR-3 ovarian
OVCAR-4 ovarian = system: OVCAR-4 ovarian
OVCAR-5 ovarian = system: OVCAR-5 ovarian
OVCAR-8 ovarian = system: OVCAR-8 ovarian
PC-3 prostate = system: PC-3 prostate
RPMI-8226 leukemia = system: RPMI-8226 leukemia
RXF 393 renal = system: RXF 393 renal
SF-268 CNS = system: SF-268 CNS
SF-295 CNS = system: SF-295 CNS
SF-539 CNS = system: SF-539 CNS
SK-MEL-2 melanoma = system: SK-MEL-2 melanoma
SK-MEL-28 melanoma = system: SK-MEL-28 melanoma
SK-MEL-5 melanoma = system: SK-MEL-5 melanoma
SK-OV-3 ovarian = system: SK-OV-3 ovarian
SN12C renal = system: SN12C renal
SNB-19 CNS = system: SNB-19 CNS
SNB-75 CNS = system: SNB-75 CNS
SR leukemia = system: SR leukemia
SW-620 colon = system: SW-620 colon
T-47D breast = system: T-47D breast
TK-10 renal = system: TK-10 renal
U251 CNS = system: U251 CNS
UACC-257 melanoma = system: UACC-257 melanoma
UACC-62 melanoma = system: UACC-62 melanoma
UO-31 renal = system: UO-31 renal

Molecule `COc1cc(/C=C/C(=O)/C=C/c2ccc(-n3ccnc3)cc2)ccc1O` has a TGI (NCI-H23 lung) of 5.04 µM, a GI50 (NCI-H460 lung) of 14.1 µM and a TGI (NCI-H460 lung) of 34.9 µM. The GI50 (NCI-H522 lung) was 4.98 µM, the TGI (NCI-H522 lung) was 18.9 µM and the GI50 (NCI/ADR-RES ovarian) was 15.9 µM. The TGI (NCI/ADR-RES ovarian) was greater than 100 µM, the GI50 (OVCAR-3 ovarian) was 3.14 µM and the TGI (OVCAR-3 ovarian) was 10 µM. It also gave a GI50 (OVCAR-4 ovarian) of 8.38 µM, a TGI (OVCAR-4 ovarian) of 35.5 µM and a GI50 (OVCAR-5 ovarian) of 16.6 µM. The TGI (OVCAR-5 ovarian) was 33.9 µM, the GI50 (OVCAR-8 ovarian) was 3.58 µM and the TGI (OVCAR-8 ovarian) was greater than 100 µM. For the same molecule, the GI50 (PC-3 prostate) was 2.19 µM, the TGI (PC-3 prostate) was 5.4 µM and the GI50 (RPMI-8226 leukemia) was 1.54 µM. The TGI (RPMI-8226 leukemia) was 4.46 µM, the GI50 (RXF 393 renal) was 1.81 µM and the TGI (RXF 393 renal) was 3.42 µM. For the same molecule, the GI50 (SF-268 CNS) was 3.08 µM, the TGI (SF-268 CNS) was 16.2 µM and the GI50 (SF-295 CNS) was 14 µM. For the same molecule, the TGI (SF-295 CNS) was 33 µM, the GI50 (SF-539 CNS) was 2.47 µM and the TGI (SF-539 CNS) was 6.31 µM. It also gave a GI50 (SK-MEL-2 melanoma) of 20.8 µM, a TGI (SK-MEL-2 melanoma) of 55.8 µM and a GI50 (SK-MEL-28 melanoma) of 2.42 µM. The TGI (SK-MEL-28 melanoma) was 6.49 µM, the GI50 (SK-MEL-5 melanoma) was 3.43 µM and the TGI (SK-MEL-5 melanoma) was 12 µM. It also gave a GI50 (SK-OV-3 ovarian) of 6.07 µM, a TGI (SK-OV-3 ovarian) of 36.1 µM and a GI50 (SN12C renal) of 2.41 µM. It also gave a TGI (SN12C renal) of 7.53 µM, a GI50 (SNB-19 CNS) of 4.37 µM and a TGI (SNB-19 CNS) of 47.7 µM. The GI50 (SNB-75 CNS) was 9.96 µM, the TGI (SNB-75 CNS) was greater than 100 µM and the GI50 (SR leukemia) was 1.67 µM. The TGI (SR leukemia) was 9.24 µM, the GI50 (SW-620 colon) was 2.34 µM and the TGI (SW-620 colon) was 5.78 µM. For the same molecule, the GI50 (T-47D breast) was 2.98 µM, the TGI (T-47D breast) was 9.92 µM and the GI50 (TK-10 renal) was 4.42 µM. For the same molecule, the TGI (TK-10 renal) was 36.3 µM, the GI50 (U251 CNS) was 2.21 µM and the TGI (U251 CNS) was 5.24 µM. For the same molecule, the GI50 (UACC-257 melanoma) was 3.21 µM, the TGI (UACC-257 melanoma) was 11.5 µM and the GI50 (UACC-62 melanoma) was 5.01 µM. It also gave a TGI (UACC-62 melanoma) of 30.2 µM, a GI50 (UO-31 renal) of 1.51 µM and a TGI (UO-31 renal) of 3.15 µM.
